Values joined by “and” are separate entries in the source; they are usually repeats but may differ in a detail not shown here. Equal values may be shown once.
Columns and labels:
[1] = tested on: HepG2 (Human Hepatocyte) cell line; assay: In vitro cytotoxicity by MTT colorimetric assay on HepG2 cell line; assay type: cell-based; conditions: for % Inhibition: 72 hours incubation
Experimental: The in vitro cytotoxicity study was performed on HepG2 (Human Hepatocyte) cell line to find a nontoxic concentration of the test substances by MTT colorimetric assay and evaluate their potential on cellular respiration by measuring cellular ATP levels.
About 10 mg of all the test substances (as indicated in Table 1) were separately dissolved with 100 μl of Dimethyl sulfoxide (DMSO) and volume was made up with Dulbecco's Modified Eagle Medium-High glucose (DMEM-HG) supplemented with 2% inactivated Fetal Bovine Serum (FBS) to obtain a stock solution of 1 mg/ml concentration and sterilized by 0.22p, syringe filtration. Serial two-fold dilutions were prepared from the stock for carrying out further studies.
The monolayer cell culture was trypsinized and the cell count was adjusted to 1.0×10^5 cells/ml using Ham's F12 medium containing 10% FBS to obtain a cell suspension. To each well of the 96 well microtitre plate, 0.1 ml of the diluted cell suspension was added. After 24 hours, when a partial monolayer was formed, the supernatant was flicked off, the monolayer was washed once with medium and 100 μl of different concentrations of test substances were added. The plate was then incubated at 37° C. for 72 hours in a 5% CO2 atmosphere, and microscopic examination was carried out and observations were noted every 24 hours.
After 72 hours of incubation, the drug solutions in the wells were discarded and 50 μl of MTT in PBS was added to each well. The plate was gently shaken and incubated for 3 hr at 37° C. in a 5% CO2 atmosphere. The supernatant was removed and 100 μl of 2-propanol was added and the plate was gently shaken to solubilize the formed formazan. The absorbance was measured using a microplate reader at a wavelength of 540 nm. The percentage growth inhibition was calculated using the standard formula. The concentration of test substances needed to inhibit the growth of the cell by 50% i.e., CTC50 values were generated from the dose-response curves.

HepG2 cells = assay: Estimation of cellular respiration by measuring cellular ATP levels in HepG2 cells; assay type: cell-based, Human; conditions: for Cellular ATP / Percentage enhancement of cellular ATP levels over control: HepG2, 2 hours treatment
Experimental: The test substances were evaluated for their in vitro effect on cellular energy by measuring cellular ATP levels in human Hepatocytes (HepG2) cell line.
HepG2 cells were trypsinized from stock culture flasks and the cell count was adjusted to 1.0×10^5 cells/ml to obtain a cell suspension that was seeded into a 96-well plate. […] After 2 hours of treatment, the plate was washed with phosphate buffer saline. The cellular ATP levels determination was performed according to the instructions given in the kit manual (SIGMA, #MAK190). At the end of the experiment, the optical density was read at 570 nm using microplate reader. From the absorbance values, the cellular ATP levels were estimated using kit protocol and the concentration of cellular ATP in treated groups were determined in comparison to the control groups.

[2] = along with H2O2 (20 μM) (IMP 500 μg/ml, NMN 250 μg/ml, IMP + NMN 500 + 250 μg/ml)
[3] = substance alone (IMP 500 μg/ml, NMN 250 μg/ml, IMP + NMN 500 μg/ml, H2O2 20 μM)

| Molecule | % Inhibition ([1]; test conc. 62.5 μg/ml) [%] | % Inhibition ([1]; test conc. 125 μg/ml) [%] | % Inhibition ([1]; test conc. 250 μg/ml) [%] | % Inhibition ([1]; test conc. 500 μg/ml) [%] | % Inhibition ([1]; test conc. 1000 μg/ml) [%] | CTC 50 ([1]; 72 hours, concentration needed to inhibit cell growth by 50%) | Cellular ATP (HepG2 cells; [2]) [nmol] | Percentage enhancement of cellular ATP levels over control (HepG2 cells; [2]) [%] | Cellular ATP (HepG2 cells; [3]) [nmol] | Percentage enhancement of cellular ATP levels over control (HepG2 cells; substance alone (IMP 500 μg/ml, NMN 250 μg/ml, IMP + NMN 2:1 500 μg/ml), over hydrogen peroxide control) [%] | Percentage enhancement of cellular ATP levels over control (HepG2 cells; substance alone (IMP 500 μg/ml, NMN 250 μg/ml, IMP + NMN 2:1 500 μg/ml), over hydrogen peroxide control, listed as G4) [%] | cellular ATP levels (in words) (HepG2 cells; HepG2, in combination with Hydrogen peroxide (20 μM)) |
| --- | --- | --- | --- | --- | --- | --- | --- | --- | --- | --- | --- | --- |
| NC(=O)c1ccc[n+]([C@@H]2O[C@H](COP(=O)([O-])O)[C@@H](O)[C@H]2O)c1 [NMN, β-Nicotinamide mononucleotide] | 2.26 ± 1.49 | 21.59 ± 1.89 | 30.51 ± 0.38 | 59.95 ± 1.78 | 76.59 ± 0.54 | 415 ± 8.99 µg/mL and 415.92 ± 8.99 µg/mL | 8.28 ± 0.65 | 29.01 ± 4.25 | 4.43 ± 0.23 | 13.97±1.25 | 13.97 ± 1.25 | increased the cellular ATP levels significantly |
| Hydrogen Peroxide [Composition G2] | – | – | – | – | – | – | – | – | 0.86 ± 0.02 | – | – | – |
